Measurements published in patent US9145405B2, “Oxadiazole compound and preparation method thereof, pharmaceutical composition and use thereof” (SHANGHAI JIAO TONG UNIVERSITY, priority 2011, dated 2015).
Values after ≈ are worked out from the molar mass of the structure shown. Where two headings read alike, the source gives them in different places.

How the values were obtained:
Cox_B3 virus = test: Anti-Cox_B3 test: inhibition of cytopathic effect (CPE) in infected Vero cells, Reed-Muench; type: cell-based; details: for IC50: read-out: IC50 (half-inhibitory concentration for viruses)
Description: The present examples verifies experimental results of anti-Cox_B3 of the compounds 1-137of the present invention, Pleconaril, 3-[3,5-dimethyl-4-[5-(3-methy-1,2-oxazolyl)propoxy]phenyl]-5-(trifluonomethyl) -1,2,4-oxadiazole is used as positive control.

Vero cells = test: Toxicity (half toxic concentration) in the anti-Cox_B3 test on Vero cells; type: cell-based
[1] = Cox_B3 virus in Vero cells, CPE, Reed-Muench method

| Compound | IC50 (half-inhibitory concentration for viruses) (Cox_B3 virus; [1]) | TC50 (half of the toxic concentration) (Vero cells) | IC50 (Cox_B3 virus; [1]) | TC50 (half of the toxic concentration) (Vero cells; Vero cells, Cox_B3) | IC50 (Cox_B3 virus; Vero) |
| --- | --- | --- | --- | --- | --- |
| CCON=Cc1ccc(OCCOc2c(C)cc(-c3noc(C(F)(F)F)n3)cc2C)cn1 [Compound 44, 6-[2,6-dimethyl-4-[(5-(trifluoromethyl)-1,2,4-oxadiazole-3-yl)phenoxyl]ethoxyl]pyridine-2-oxy-ethylketoxime] | 0.078 µg/mL | 34.35 µg/mL |  |  |  |
| 2-[2,6-dimethyl-4-[(5-(trifluoromethyl)-1,2,4-oxadiazole-3-yl)phenoxyl]ethoxyl]-3-fluoro-5-methylpyridine [Compound 101] | 0.078 µg/mL | 37.35 µg/mL |  |  |  |
| 3-[3-[2,6-dimethyl-4-[5-(trifluoromethyl)-1,2,4-oxadiazole-3-yl]phenoxyl]propoxy]isoxazole-5-carboxylate [Compound 61] | 0.23 µg/mL | 37.58 µg/mL |  |  |  |
| Cc1cc(-c2noc(C(F)(F)F)n2)cc(C)c1OCCCOc1ccc(-c2noc(C(F)(F)F)n2)cc1F [Compound 124] | 0.037 µg/mL | 32.58 µg/mL |  |  |  |
| Cc1c[nH]c(OCCOc2c(C)cc(-c3noc(C(F)(F)F)n3)cc2C)n1 [Compound 12, 3-[3,5-dimethyl-4-[2-(4-methylimidazole-2-oxy)ethoxyl]phenyl]-5-(trifluoromethyl)-1,2,4-oxadiazole] |  |  | 0.12 µg/mL (≈ 0.314 µM) | 40.27 µg/mL |  |
| Cc1nc(-c2cnc(OCCOc3c(C)cc(-c4noc(C(F)(F)F)n4)cc3C)c(F)c2)no1 [Compound 115, 2-[2-[2,6-dimethyl-4-[5-(trifluoromethyl)-1,2,4-oxadiazole-3-yl]phenoxyl]ethoxyl]-3-fluoro-5-(5-methyl-1,2,4-oxadiazole-3-yl)-pyridine] |  |  | 0.037 µg/mL (≈ 0.0772 µM) | 37.55 µg/mL |  |
| Cc1ccc(OCCOc2c(C)cc(-c3noc(C(F)(F)F)n3)cc2C)c(F)c1 [Compound 39, 3-[3,5-dimethyl-4-[(2-fluoro-4-methylphenoxyl)ethoxyl]phenyl]-5-(trifluoromethyl)-1,2,4-oxadiazole] |  |  | 0.056 µg/mL (≈ 0.136 µM) | 44.28 µg/mL |  |
| 4-[2,6-dimethyl-4-(5-(trifluoromethyl)-1,2,4-oxadiazole-3-yl) phenoxyl]ethoxyl]-2-hydroxy-5-fluoropyrimidine [Compound 107] | 0.085 µg/mL | 33.82 µg/mL |  |  |  |
| 3-[2,6-dimethyl-4-[(5-(trifluoromethyl)-1,2,4-oxadiazole-3-yl)phenoxyl]ethoxyl]-6-methylpyridazine [Compound 110] | 0.28 µg/mL | 36.89 µg/mL |  |  |  |
| Cc1cc(-c2noc(C(F)(F)F)n2)cc(C)c1OCCSc1nccc(C(F)(F)F)n1 [Compound 34, 2-[2-[2,6-dimethyl-4-[5-(trifluoromethyl)-1,2,4-oxadiazole-3-yl]phenoxyl]ethylthio]-4-(trifluoromethyl) pyrimidine] |  |  | 0.11 µg/mL (≈ 0.237 µM) | 33.28 µg/mL |  |
| COC(=O)c1cc(OCCOc2c(C)cc(-c3noc(C(F)(F)F)n3)cc2C)no1 [Compound 4, 3-[2-[2,6-dimethyl-4-[5-(trifluoromethyl)-1,2,4-oxadiazole-3-yl]phenoxyl]ethoxyl]-isoxazole-5-carboxylate] | 0.26 µg/mL | 35.58 µg/mL |  |  |  |
| Cc1cc(OCCOc2c(C)cc(-c3noc(C(F)(F)F)n3)cc2C)ns1 [Compound 10, 3-[3,5-dimethyl-4-[2-(5-methylisothiazole-3-oxy)ethoxyl]phenyl]-5-(trifluoromethyl)-1,2,4-oxadiazole] |  |  | 0.042 µg/mL (≈ 0.105 µM) | 46.47 µg/mL |  |
| 2-[2,6-dimethyl-4-[(5-(trifluoromethyl)-1,2,4-oxadiazole-3-yl)phenoxyl]ethoxyl]-3-fluoro-5-methylpyridine [Compound 47] | 0.082 µg/mL | 39.56 µg/mL |  |  |  |
| COc1ccc(OCCOc2c(C)cc(-c3noc(C(F)(F)F)n3)cc2C)c(F)c1 [Compound 40, 3-[3,5-dimethyl-4-[(2-fluoro-4-methoxyphenoxyl)ethoxyl]phenyl]-5-(trifluoromethyl)-1,2,4-oxadiazole] |  |  | 0.044 µg/mL (≈ 0.103 µM) | 45.39 µg/mL |  |
| Cc1cc(-c2noc(C(F)(F)F)n2)cc(C)c1OCCOc1ccc(Cl)cc1Cl [Compound 43, 3-[3,5-dimethyl-4-[(2,4-dichlorophenoxyl)ethoxyl]phenyl]-5-(trifluoromethyl)-1,2,4-oxadiazole] |  |  | 0.044 µg/mL (≈ 0.0984 µM) | 35.66 µg/mL |  |
| 4-[2,6-dimethyl-4-[(5-(trifluoromethyl)-1,2,4-oxadiazole-3-yl)phenoxyl]ethoxyl]-3-fluorobenzonitrile [Compound 38] | 0.048 µg/mL | 45.28 µg/mL |  |  |  |
| Cc1cc(-c2noc(C(F)(F)F)n2)cc(C)c1OCCOc1ccc(-c2noc(C(F)(F)F)n2)cc1F [Compound 123] | 0.043 µg/mL | 35.88 µg/mL |  |  |  |

| Compound | IC50 (half-inhibitory concentration for viruses) (Cox_B3 virus; [1]) | TC50 (half of the toxic concentration) (Vero cells) | IC50 (Cox_B3 virus; [1]) | TC50 (half of the toxic concentration) (Vero cells; Vero cells, Cox_B3) | IC50 (Cox_B3 virus; Vero) |
| --- | --- | --- | --- | --- | --- |
| Cc1cc(-c2noc(C(F)(F)F)n2)cc(C)c1OCCOc1nnc(C(F)(F)F)s1 [Compound 30, 3-[3,5-dimethyl-4-[2-[5-trifluoromethyl-1,3,4-thiadiazole-2-oxy]ethoxyl]phenyl]-5-(trifluoromethyl)-1,2,4-oxadiazole] |  |  | 0.08 µg/mL (≈ 0.176 µM) | 34.39 µg/mL |  |
| 6-[2,6-dimethyl-4-[(5-(trifluoromethyl)-1,2,4-oxadiazole-3-yl)phenoxyl]ethoxyl]-5-trifluoromethylpyridine [Compound 106] | 0.09 µg/mL | 36.36 µg/mL |  |  |  |
| Cc1cc(-c2noc(C(F)(F)F)n2)cc(C)c1OCCCOc1cnc(C#N)cn1 [Compound 131, 2-cyano-5-[3-[2,6-dimethyl-4-[5-(trifluoromethyl)-1,2,4-oxadiazole-3-yl]phenoxyl]propoxy]pyrazine] |  |  |  | 36.87 µg/mL | 0.035 µg/mL (≈ 0.0835 µM) |
| 4-[2,6-dimethyl-4-[(5-(trifluoromethyl)-1,2,4-oxadiazole-3-yl)phenoxyl]ethoxyl]-2-hydroxyl-5-fluoropyrimidine [Compound 53] | 0.056 µg/mL | 46.89 µg/mL |  |  |  |
| 6-[2,6-dimethyl-4-[(5-(trifluoromethyl)-1,2,4-oxadiazole-3-yl)phenoxyl]ethoxyl]pyridine-2-oxy-ethylketoxime [Compound 98] | 0.093 µg/mL | 42.89 µg/mL |  |  |  |
| Cc1cc(-c2noc(C(F)(F)F)n2)cc(C)c1OCCCOc1ccc([N+](=O)[O-])cn1 [Compound 134, 2-[3-[2,6-dimethyl-4-[5-(trifluoromethyl)-1,2,4-oxadiazole-3-yl]phenoxyl]propoxy]-5-nitropyridine] |  |  | 0.045 µg/mL (≈ 0.103 µM) | 40.25 µg/mL |  |
| Cc1cc(OCCOc2c(C)cc(-c3noc(C(F)(F)F)n3)cc2C)[nH]n1 [Compound 15, 3-[3,5-dimethyl-4-[2-(3-methyl-1H-pyrazole-5-oxy)ethoxyl]phenyl]-5-(trifluoromethyl)-1,2,4-oxadiazole] |  |  | 0.12 µg/mL (≈ 0.314 µM) | 42.38 µg/mL |  |
| Cc1nnc(SCCOc2c(C)cc(-c3noc(C(F)(F)F)n3)cc2C)[nH]1 [Compound 25, 3-[2-[2,6-dimethyl-4-[5-(trifluoromethyl)-1,2,4-oxadiazole-3-yl]phenoxyl]ethylthio]-5-methyl-4H-1,2,4-triazole] |  |  | 0.09 µg/mL (≈ 0.225 µM) | 40.21 µg/mL |  |
| 4-[2,6-dimethyl-4-[(5-(trifluoromethyl)-1,2,4-oxadiazole-3-yl)phenoxyl]ethoxyl]-3-fluorobenzonitrile [Compound 92] | 0.18 µg/mL | 43.78 µg/mL |  |  |  |
| 5-[2,6-dimethyl-4-[(5-(trifluoromethyl)-1,2,4-oxadiazole-3-yl)phenoxyl]ethoxyl]pyridine-2-oxy-ethylketoxime [Compound 45] | 0.10 µg/mL |  |  | 32.28 µg/mL |  |
| Cc1cc(-c2noc(C(F)(F)F)n2)cc(C)c1OCCOc1nccc(C(F)(F)F)n1 [Compound 33, 2-[2-[2,6-dimethyl-4-[5-(trifluoromethyl)-1,2,4-oxadiazole-3-yl]phenoxyl]ethoxyl]-4-(trifluoromethyl) pyrimidine] |  |  | 0.12 µg/mL (≈ 0.268 µM) | 35.28 µg/mL |  |
| 6-[2,6-dimethyl-4-[(5-(trifluoromethyl)-1,2,4-oxadiazole-3-yl)phenoxyl]ethoxyl]-5-methylpyridine [Compound 105] | 0.13 µg/mL | 43.18 µg/mL |  |  |  |
| 3-[2-(2,6-dimethyl-4-[(5-(trifluoromethyl)-1,2,4-oxadiazole-3-yl)phenoxyl]ethoxyl]-2-formamide-6-fluoropyrazine [Compound 109] | 0.13 µg/mL |  |  | 48.21 µg/mL |  |
| Cc1cc(-c2noc(C(F)(F)F)n2)cc(C)c1OCCCOc1cc(C(F)(F)F)no1 [Compound 9, 3-[3,5-dimethyl-4-[3-(3-trifluoromethylisoxazole-5-oxy)propoxy]phenyl]-5-(trifluoromethyl)-1,2,4-oxadiazole] |  |  | 0.031 µg/mL (≈ 0.0687 µM) |  |  |
| 3-[3,5-dimethyl-4-[2-(5-methyl-1H-imidazole-2-thio)ethoxyl]phenyl]-5-(trifluoromethyl)-1,2,4-oxadiazole [Compound 18] | 0.13 µg/mL |  |  |  |  |
| Cc1cc(Cl)c(OCCCOc2c(C)cc(-c3noc(C(F)(F)F)n3)cc2C)c(Cl)c1 [Compound 130, 3-[4-[3-[2,6-dichloro-4-methylphenoxyl]propoxy]-3,5-dimethylphenyl]-5-(trifluoromethyl)-1,2,4-oxadiazole] |  |  |  |  | 0.031 µg/mL (≈ 0.0652 µM) |
